# Data as given in patent US20260200890A1, “ADAR1 INHIBITORS AND METHODS OF USING THE SAME” (AVAMMUNE THERAPEUTICS INC., priority 2022, published 2026).
# How the values were obtained:
# ADAR1 = target: T1, ADAR1 (Homo sapiens, UniProt P55265); test: ADAR1 Inhibition Assay (IFN fold-induction, Quanti-Luc luminescence, p110 KO A549 dual cells); assay type: cell-based; conditions: IFN fold-induction vs DMSO, 24 and 48 h
# T1 construct: endogenous in cells; host or cells: p110 KO A549 dual cells
# T1 sequence (P55265 1-1226): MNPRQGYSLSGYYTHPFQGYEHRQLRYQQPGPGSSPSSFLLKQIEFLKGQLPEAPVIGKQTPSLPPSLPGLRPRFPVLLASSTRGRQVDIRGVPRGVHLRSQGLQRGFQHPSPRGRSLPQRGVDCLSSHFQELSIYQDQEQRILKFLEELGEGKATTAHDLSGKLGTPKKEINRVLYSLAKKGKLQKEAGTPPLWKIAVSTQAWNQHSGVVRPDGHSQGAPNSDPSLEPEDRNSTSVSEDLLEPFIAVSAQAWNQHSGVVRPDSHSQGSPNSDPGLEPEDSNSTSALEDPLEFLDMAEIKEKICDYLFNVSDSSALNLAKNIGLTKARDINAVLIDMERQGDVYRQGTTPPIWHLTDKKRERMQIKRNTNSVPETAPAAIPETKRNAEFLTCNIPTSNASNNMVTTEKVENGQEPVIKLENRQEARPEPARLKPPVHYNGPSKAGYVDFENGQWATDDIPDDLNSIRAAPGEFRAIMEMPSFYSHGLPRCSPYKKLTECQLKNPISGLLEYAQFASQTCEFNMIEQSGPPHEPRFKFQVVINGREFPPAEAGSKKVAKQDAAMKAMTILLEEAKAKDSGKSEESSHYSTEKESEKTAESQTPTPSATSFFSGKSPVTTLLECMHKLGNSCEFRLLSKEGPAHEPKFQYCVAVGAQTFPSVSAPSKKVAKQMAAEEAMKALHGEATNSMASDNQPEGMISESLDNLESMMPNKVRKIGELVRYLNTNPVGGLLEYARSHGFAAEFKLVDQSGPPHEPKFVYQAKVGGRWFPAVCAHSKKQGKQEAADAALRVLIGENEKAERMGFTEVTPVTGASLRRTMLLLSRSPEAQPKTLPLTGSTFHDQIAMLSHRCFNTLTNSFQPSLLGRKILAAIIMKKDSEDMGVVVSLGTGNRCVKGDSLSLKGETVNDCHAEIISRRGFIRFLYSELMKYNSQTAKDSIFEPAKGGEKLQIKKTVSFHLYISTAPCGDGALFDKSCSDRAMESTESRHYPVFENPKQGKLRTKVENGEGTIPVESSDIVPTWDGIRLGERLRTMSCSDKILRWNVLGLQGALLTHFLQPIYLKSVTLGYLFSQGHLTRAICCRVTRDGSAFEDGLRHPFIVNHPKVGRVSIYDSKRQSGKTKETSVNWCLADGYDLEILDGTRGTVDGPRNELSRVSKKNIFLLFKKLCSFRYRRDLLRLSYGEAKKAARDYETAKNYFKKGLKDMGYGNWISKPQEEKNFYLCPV
# Outline: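 EC50 derived from IFN fold-induction, calculated as sample RLU over average DMSO RLU. Luminescence measured by Quanti-Luc on samples taken after 24 and 48 h of compound exposure (1% DMSO final, 37 °C, 5% CO2). Cells were p110 KO A549 dual, seeded at 20,000 per well in supplemented DMEM.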
# Zα domain of ADAR1 p150 = target: T2, Zα domain of ADAR1 p150 (Homo sapiens, UniProt P55265); test: SPR binding assay; conditions: 6× his tag Zα domain immobilized on CM5 chip, analyte 0-25 μM
# T2 construct: 10 μg/ml of Zα domain of ADAR1 was immobilized on CM5 chip using anti-HIS antibody; made in house
# T2 sequence (P55265 133-199 limits assumed): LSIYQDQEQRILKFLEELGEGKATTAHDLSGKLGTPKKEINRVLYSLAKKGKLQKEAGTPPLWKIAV
# Description: 6× his tag Za domain of ADAR1 p150 was purified using bacterial purification system. Protein was isolated from supernatant of cell lysate using Ni-NTA resin. For binding assay using SPR, 10 μg/ml of Zα domain of ADAR1 was immobilized on CM5 chip using anti-HIS antibody. Binding was quantified using the following condition below: • Analyte: 25, 12.5, 6.25, 3.125, 1.56, 0.78, 0 μM • Contact time—60 seconds, • Dissociation time—320 seconds • Flow rate—30 μL/minute Running buffer-PBSP+5% DMSO • After curve fitting, Kd values for synthesized compounds was quantified using the instrument software.
SMILES,EC50 (ADAR1),Kd (Zα domain of ADAR1 p150)
CCOC(=O)c1cc(-c2ccccc2)sc1-c1coc(CNc2cccc(NS(C)(=O)=O)c2)c1 [Compound 329],> 100 µM,1 to 10 µM
CCOC(=O)c1cc(-c2ccccc2)sc1NC(=O)CNC(=O)Cc1cccc(Br)c1 [Compound 330],> 100 µM,≤ 1 µM
CCOC(=O)c1cc(-c2ccccc2)sc1NC(=O)COC(=O)c1cccc(P(=O)(OCC)OCC)c1 [Compound 343],> 100 µM,≤ 1 µM
CCOC(=O)c1cc(-c2ccccc2)sc1NC(=O)CNC(=O)c1cccc(P(=O)(OCC)OCC)c1 [Compound 344],> 100 µM,> 25 µM
CCOC(=O)c1cc(N)nn1C(=O)COC(=O)c1cccc(NS(C)(=O)=O)c1 [Compound 346],> 100 µM,≤ 1 µM
CCOC(=O)c1cc(-c2ccccc2)[nH]c1NC(=O)COC(=O)c1cccc(P(=O)(OCC)OCC)c1 [Compound 349],> 100 µM,> 25 µM
CCOC(=O)c1cc(-c2ccccc2)sc1NC(=O)CNC(=O)Cc1cccc(P(=O)(O)O)c1 [Compound 350],> 100 µM,≤ 1 µM
CCOC(=O)c1cc(-c2ccccc2)sc1NC(=O)CNC(=O)Cc1cccc(OS(N)(=O)=O)c1 [Compound 351],> 100 µM,≤ 1 µM
CCOC(=O)c1cc(-c2ccccc2)[nH]c1NC(=O)COC(=O)c1cccc(P(=O)(O)O)c1 [Compound 355],> 100 µM,≤ 1 µM
CCOC(=O)c1sc(NC(=O)COC(=O)c2cccc(P(=O)(OCC)OCC)c2)nc1-c1ccccc1 [Compound 356],> 100 µM,> 25 µM
CCOC(=O)c1cc(-c2ccccc2)sc1NC(=O)CNC(=O)c1cccc(Br)c1 [Compound 358],> 100 µM,≤ 1 µM
CCOC(=O)c1cc(-c2ccccc2)sc1NC(=O)COC(=O)c1cccc(C(=O)OC)c1 [Compound 359],> 100 µM,≤ 1 µM
CCOC(=O)c1cc(-c2ccccc2)sc1NC(=O)C1CCN(C(=O)c2cccc(P(=O)(OCC)OCC)c2)C1 (stereo not shown) [Compound 361],50 to 100 µM,> 25 µM
CCOC(=O)c1cc(-c2ccccc2)sc1NC(=O)CNC(=O)Cc1ccc(S(N)(=O)=O)cc1 [Compound 363],> 100 µM,≤ 1 µM
CCOC(=O)c1cc(-c2ccccc2)sc1NC(=O)CN1C[C@H]2CC[C@@H](C1)N2S(C)(=O)=O [Compound 364],> 100 µM,> 25 µM
CCOC(=O)c1cc(-c2ccccc2)sc1NC(=O)CNC(=O)CCc1cccc(NS(C)(=O)=O)c1 [Compound 365],> 100 µM,≤ 1 µM
CCOC(=O)c1cc(-c2ccccc2)sc1NC(=O)CNC(=O)Cc1ccc(Cl)c(NS(C)(=O)=O)c1 [Compound 366],> 100 µM,≤ 1 µM
CCOC(=O)c1cc(-c2ccccc2)sc1NC(=O)CNC(=O)c1cccc(P(=O)(O)O)c1 [Compound 367],> 100 µM,≤ 1 µM
CCOC(=O)c1cc(-c2ccccc2)sc1NC(=O)CC(=O)NCc1cccc(NS(C)(=O)=O)c1 [Compound 369],> 100 µM,> 25 µM
CCOC(=O)c1cc(-c2ccccc2)ncc1NC(=O)COC(=O)c1cccc(NS(C)(=O)=O)c1 [Compound 372],> 100 µM,> 25 µM
CCNC(=O)c1cc(-c2ccccc2)sc1NC(=O)CNC(=O)Cc1cccc(NS(C)(=O)=O)c1 [Compound 376],> 100 µM,≤ 1 µM
CCOC(=O)c1cc(-c2ccccc2)sc1NC(=O)C1CCCCN1C(=O)Cc1cccc(NS(C)(=O)=O)c1 (stereo not shown) [Compound 380],> 100 µM,≤ 1 µM
CCNC(=O)c1cc(-c2ccccc2)sc1NC(=O)CN(C)C(=O)Cc1cccc(NS(C)(=O)=O)c1 [Compound 384],> 100 µM,1 to 10 µM
